Data as given in patent US20050075375A1 (priority 2003, published 2005).
Where two headings read alike, the source gives them in different places.

Tested on: monocistronic NK5.1 HCV replicon in Huh7 cells
Test: HCV replicon assay, monocistronic replicon cell line
Type: cell-based, hepatitis C virus
Details: Hepatitis C virus, read-out: Mono EC50 Median
Excerpt: HCV Replicon Assays (Replicon EC50 (μM))
HCV replication can be measured by a replicon assay such as described by Vrolijk et al, J. Virol. Methods 110:201(2003), which is hereby incorporated in its entirety by reference. The method was implemented as follows.
Monocistronic Replicon Cell Line:
Human hepatocyte Huh7 cells containing the monocistronic NK5.1 replicon were obtained from Ralf Bartenschlager at the University of Mainz, Germany. These cells were maintained under hygromycin selection and passaged when 80-90% confluent.
This cell line contains an autonomously replicating RNA element (replicon) incorporating the non-structural HCV elements necessary for replication, and upon which the survival of the replicon in the cell depends. This replicon contains a single internal ribosome entry site (HCV IRES). Inhibition of any of the critical HCV finctions by a compound leads to loss of the replicon as measured by HCV replicon RNA copy number reduction. The amount of HCV RNA present following a standard incubation with a compound is a measure of the anti-HCV activity of the compound. The assay was conducted by preparing sufficient 96-well plates containing these cells, wherein cells are seeded at 6000 cells/well in a 96-well plate, in 200 μl of final media volume. Cells were then incubated for 24 hours at 37 C., 5% CO2, and 95% humidity before compound was added. Six point half-log concentration response assays were conducted to determine potency/EC50 of Formula I compounds to inhibit HCV replicon replication. The final percent DMSO acceptable in this assay system is 0.6%. Compounds were diluted in media in an appropriate format and 5 μl of each drug dilution is added to each well. Cells were then incubated with compounds for 3 days at 37 C., 5% CO2, and 95% humidity. Following the three day incubation period, plates were washed twice with phosphate buffered saline to remove media and cells were lysed with Qiagen extraction buffer. RNA was extracted and isolated with the Qiagen RNAeasy kit according to the manufacturer's protocol (Qiagen). TaqMan One-Step RT-PCR was used in conjunction with an ABI 7700 Sequence Detector (Applied Biosystems) for the quantitation and analysis of HCV replicon RNA copy number. A GAPDH probe was used for internal normalization. The ratio of HCV RNA to cellular GAPDH RNA was determined and compared to the DMSO-only treated control, and the ratio of HCV RNA/GAPDH RNA was used for an EC50 determination and as a measure of specificity for inhibition of the HCV replicon.

[1] = Huh-7, monocistronic NK5.1 HCV replicon in Huh7 cells, median value
[2] = Huh-7, 72 h, Table 1, monocistronic replicon in Huh7 cells, 3 days incubation, HCV RNA/GAPDH RNA by TaqMan RT-PCR
[3] = Huh-7, 72 h, table T3 (compounds 471-640), monocistronic replicon in Huh7 cells, 3 days incubation, HCV RNA/GAPDH RNA by TaqMan RT-PCR

SMILES	EC50 [1]	other results
Fc1ccccc1-c1nnc(-c2ccccc2F)o1 [Compound 333, 2,5-Bis-(2-fluoro-phenyl)-[1,3,4]oxadiazole]	> 32 µM	–
COc1ccc(O)c(-c2nc(-c3ncccc3C(F)(F)F)no2)c1 [Compound 208, 4-Methoxy-2-[3-(3-trifluoromethyl-pyridin-2-yl)-[1,2,4]oxadiazol-5-yl]-phenol]	–	EC50 [2]: 3.5 µM
CCN(CC)c1ccc(-c2nc(-c3cnccc3C(F)(F)F)n[nH]2)c(O)c1 [Compound 424, 5-Diethylamino-2-[5-(4-trifluoromethyl-pyridin-3-yl)-2H-[1,2,4]triazol-3-yl]-phenol]	> 3.2 µM	–
CC(C)c1ccc(-c2nc(-c3ccccn3)n[nH]2)cc1 [Compound 389, 2-[5-(4-Isopropyl-phenyl)-1H-[1,2,4]triazol-3-yl]-pyridine]	> 19 µM	–
Cc1cccc(-c2n[nH]c(-c3ccc(-c4ccccc4)c(F)c3)n2)n1 [Compound 398, 2-[5-(2-Fluoro-biphenyl-4-yl)-1H-[1,2,4]triazol-3-yl]-6-methyl-pyridine]	> 19 µM	–
CC(=O)Nc1ccc(-c2nc(-c3ncccc3C)no2)c(O)c1 [Compound 291]	6 µM	–
COc1ccc(O)c(-c2nc(-c3ncccc3[N+](=O)[O-])n[nH]2)c1 [Compound 554, 4-Methoxy-2-[5-(3-nitro-pyridin-2-yl)-2H-[1,2,4]triazol-3-yl]-phenol]	–	EC50 [3]: > 19 µM
O=[N+]([O-])c1cccc(-c2nc(-c3ncccc3Br)n[nH]2)c1 [Compound 497, 3-Bromo-2-[5-(3-nitro-phenyl)-1H-[1,2,4]triazol-3-yl]-pyridine]	–	EC50 [3]: > 32 µM
COc1ccc(-c2nc(-c3nccc4ccccc34)n[nH]2)c(O)c1 [Compound 376, 5-Methoxy-2-(5-isoquinolin-1-yl-2H-[1,2,4]triazol-3-yl)-phenol]	> 19 µM	–
Fc1cccc(Cl)c1-c1nc(-c2ccccn2)n[nH]1 [Compound 436, 2-[5-(2-Fluoro-6-chloro-phenyl)-1H-[1,2,4]triazol-3-yl]-pyridine]	16 µM	–
Brc1cccc(-c2nc(-c3ccccn3)n[nH]2)c1 [Compound 432, 2-[5-(3-Bromo-phenyl)-1H-[1,2,4]triazol-3-yl]-pyridine]	19 µM	–
Cc1cccnc1-c1n[nH]c(-c2cc(O)ccc2O)n1 [Compound 457, 4-Hydroxy-2-[5-(3-methyl-pyridin-2-yl)-2H-[1,2,4]triazol-3-yl]-phenol]	4.1 µM	–
Oc1ccc(Br)cc1-c1nc(-c2ncccc2C(F)(F)F)no1 [Compound 292, 4-Bromo-2-[3-(3-trifluoromethyl-pyridin-2-yl)-[1,2,4]oxadiazol-5-yl]-phenol]	1.5 µM	–
COc1ccc(O)c(-c2nc(-c3ncccc3Br)n[nH]2)c1 [Compound 487, 2-[5-(3-Bromo-pyridin-2-yl)-2H-[1,2,4]triazol-3-yl]-4-Methoxy-phenol]	–	EC50 [3]: > 32 µM
Cc1ccc(O)c(-c2nc(-c3ccoc3)no2)c1 [Compound 284, 2-(3-Furan-3-yl-[1,2,4]oxadiazol-5-yl)-4-methyl-phenol]	17 µM	–
Oc1ccc(Br)cc1-c1nc(-c2cnccc2C(F)(F)F)n[nH]1 [Compound 419, 4-Bromo-2-[5-(4-trifluoromethyl-pyridin-3-yl)-2H-[1,2,4]triazol-3-yl]-phenol]	12 µM	–
COc1cccc(-c2nc(-c3ncccc3Br)n[nH]2)c1O [Compound 496, 2-[5-(3-Bromo-pyridin-2-yl)-2H-[1,2,4]triazol-3-yl]-6-Methoxy-phenol]	–	EC50 [3]: > 32 µM
COc1ccc(O)c(-c2nc(-c3nccc4ccccc34)n[nH]2)c1 [Compound 370, 4-Methoxy-2-(5-isoquinolin-1-yl-2H-[1,2,4]triazol-3-yl)-phenol]	2.9 µM	–

SMILES	EC50 [1]	other results
Cc1cc(-c2c(O)ccc3ccccc23)nn1-c1ccccc1[N+](=O)[O-] [Compound 1, 1-[5-Methyl-1-(2-nitro-phenyl)-1 H-pyrazol-3-yl]-naphthalen-2-ol]	–	EC50 [2]: > 32 µM
CN(C)c1ccc(-c2nc(-c3ccccn3)no2)c(O)c1 [Compound 163, 5-Dimethylamino-2-(3-pyridin-2-yl-[1,2,4]oxadiazol-5-yl)-phenol]	–	EC50 [2]: 1.5 µM
Cc1cccnc1-n1cnc(-c2cc(Br)ccc2O)n1 [Compound 635, 4-Bromo-2-[1-(3-methyl-pyridin-2-yl)-1H-[1,2,4]triazol-3-yl]-phenol]	–	EC50 [3]: 6.2 µM
Oc1ccc(Cl)cc1-c1nc(-c2ccc(C(F)(F)F)cn2)no1 [Compound 218, 4-Chloro-2-[3-(5-trifluoromethyl-pyridin-2-yl)-[1,2,4]oxadiazol-5-yl]-phenol]	18 µM	EC50 [2]: 18 µM
COc1ccc(-c2ccn(-c3ncccc3C(F)(F)F)n2)c(O)c1 [Compound 89, 5-Methoxy-2-[1-(3-trifluoromethyl-pyridin-2-yl)-1H-pyrazol-3-yl]-phenol]	–	EC50 [2]: 8.8 µM
Oc1c(Cl)cc(Cl)cc1-c1nc(-c2ccccn2)no1 [Compound 281]	2.1 µM	–
Cn1nc(-c2ccccn2)nc1-c1ccccc1O [Compound 602, 2-(2-methyl-5-pyridin-2-yl-2H-[1,2,4]triazol-3-yl)-phenol]	–	EC50 [3]: > 32 µM
COc1ccc(O)c(-c2nc(-c3ccc(N)cn3)n[nH]2)c1 [Compound 594, 2-[5-(5-Amino-pyridin-2-yl)-2H-[1,2,4]triazol-3-yl]-4-methoxy-phenol]	–	EC50 [3]: > 19 µM
Cc1cccnc1-c1n[nH]c(-c2cc(Cl)cc(Br)c2O)n1 [Compound 624, 4-Chloro-6-bromo-2-[5-(3-methyl-pyridin-2-yl)-2H-[1,2,4]triazol-3-yl]-phenol]	–	EC50 [3]: 2.2 µM
COc1ccccc1-c1ccn(-c2ncccc2C(F)(F)F)n1 [Compound 38, 2-[3-(2-Methoxy-phenyl)-pyrazol-1-yl]-3-trifluoromethyl-pyridine]	–	EC50 [2]: 13 µM
Cc1cc(O)c(-c2cc(C)n(-c3ccccc3C(F)(F)F)n2)cc1C [Compound 24, 4,5-Dimethyl-2-[5-methyl-i-(2-trifluoromethyl-phenyl)-1H-pyrazol-3-yl]-phenol]	–	EC50 [2]: > 19 µM
COc1ccc(-c2nc(-c3ccc(NC(C)=O)cn3)no2)c(O)c1 [Compound 261, N-{6-[5-(2-Hydroxy-4-methoxy-phenyl)-[1,2,4]oxadiazol-3-yl]-pyridin-3-yl}-acetamide]	45.3 µM	–
COc1ccc(-c2ccn(-c3ccccn3)n2)c(O)c1OC [Compound 118, 2,3-Dimethoxy-6-(1-pyridin-2-yl-1H-pyrazol-3-yl)-phenol]	–	EC50 [2]: 23.8 µM
Cc1ccccc1-c1nnc(-c2ncc(C(F)(F)F)cc2Cl)o1 [Compound 341, 3-Chloro-2-(5-o-tolyl-[1,3,4]oxadiazol-2-yl)-5-trifluoromethyl-pyridine]	20 µM	–
Fc1ccccc1-c1nnc(-c2ccccc2C(F)(F)F)o1 [Compound 334, 2-(2-Fluoro-phenyl)-5-(2-trifluoromethyl-phenyl)-[1,3,4]oxadiazole]	> 32 µM	–
O=[N+]([O-])c1ccc(O)c(-c2nc(-c3ncccc3C(F)(F)F)n[nH]2)c1 [Compound 532, 4-Nitro-2-[5-(3-trifluoromethyl-pyridin-2-yl)-2H-[1,2,4]triazol-3-yl]-phenol]	–	EC50 [3]: > 19 µM
Brc1ccc(-c2nc(-c3nccc4ccccc34)n[nH]2)cc1 [Compound 439]	> 19 µM	–
COc1ccc(-c2nc(-c3ncccc3C)no2)c(O)c1OC [Compound 282, 2,3-Dimethoxy-6-[3-(3-methyl-pyridin-2-yl)-[1,2,4]oxadiazol-5-yl]-phenol]	1.3 µM	–
